Reference: patent US10179770B2, “Quinolines derivatives as novel anticancer agents” (GENOSCIENCE PHARMA, priority 2013, dated 2019)

Columns and labels:
Colo205 = assay: EC50 determination in cancer cell lines; assay type: cell-based; conditions: Homo sapiens, COLO 205, 72 h, * n>2
In short: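 Treatment lasts 72 h at a fixed vehicle content of DMSO or H2O. The readout is MTS for adherent cells and SRB for suspension cells. Each EC50 is the concentration halving absorbance relative to vehicle.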

U87-MG = assay: CellTiter 96 Aqueous One Solution (MTS) cell proliferation assay; assay type: cell-based; conditions: Homo sapiens, U-87 MG; U87-MG (Glioma); Cell Titer 96 Aqueous One Solution; 72 h; mean of seven independent triplicate assays
Protocol: The human glioblastoma cell line U87-MG was cultured in Minimum Essential Medium (Life Invitrogen, 31095029) supplemented with 10% fetal bovine serum (GIBCO, 10500-056) and 1 % penicillin-streptomycin (GIBCO, 15140-122). Flasks and plated used for the cell culture were coated with 25 μg/mL poly-D-lysine (Sigma, P7280).
Cell outgrowth was measured using a tetrazolium compound (3-[4,5-dimethylthiazol-2-yl]-5-[3-carboxymethoxyphenyl]-2-[4-sulfophenyl]-2H tetrazolium, inner salt [MTS]) from the CellTiter 96® Aqueous One Solution Cell Proliferation Assay (Promega, Ref G3580) and according to the manufacturer procedure.
5000 cells were plated onto 96-well plates in 100 μL of media per well and were allowed to grow overnight before the assay. Compounds were added at different concentrations to each well, and cell cultures were incubated for 72 h. Control compound was the diluent used for compound resuspension (H2O). After addition of 20 μL of CellTiter 96® Aqueous One Solution, absorbance at 492 nm was measured using a microplate reader Sunrise (Tecan). EC50 values were determined as the dose of compound required to reduce […] values to 50% of the signal obtained for untreated cell cultures. […] The experimental data are analyzed using a computer program, Graphpad Prism (GraphPad Software, Inc. La Jolla, Calif.).

B16F10 = assay: CellTiter-Glo cell viability assay (example 57); assay type: cell-based, human; conditions: Mus musculus, B16-F10; B16F10 (Melanoma); Cell Titer-Glo; 72 h
Capan-2 = assay: Cell viability assay, pancreatic cancer cell lines; assay type: cell-based; conditions: Homo sapiens; Capan-2 (Pancreas); 48 h
Protocol: (§1) MiaPaCa-2, Panc-1 cells were grown in Dulbecco's modified eagle's medium (DMEM) (Gibco) supplemented with 10% fetal bovine serum (FBS), while BxPC-3, Capan-1, Capan-2 cells were grown in Roswell Park Memorial Institute 1640 (RPMI 1640) (Gibco) supplemented with 10% FBS. Gemcitabine (Gemzar) was purchased from Lilly France S.A.S (Suresnes, France). (3-(4,5-dimethylthiazol-2-yl)-2,5diphenyltetrazolium bromide, MTT) was purchased from Sigma-Aldrich.
(§2) BxPC-3, MiaPaCa-2, Panc-1 cells were seeded into a 96-well plate at 10,000 10,000 15,000 cells per well respectively, while Capan-1 and Capan-2 cells at 20,000 cells per well and allowed to adhere overnight. Then the culture medium was removed and replaced with fresh media alone as control or containing various concentrations of different compounds. In dose-dependent assay, the cells were treated with compound XIX-3 at the concentration varying from 0.1 μM to 100 μM while the cells being cultured by fresh media alone were used as control. After 48 h treatment, the number of remained viable cells was determined by (3-(4,5-dimethylthiazol-2-yl)-2,5diphenyltetrazolium bromide, MTT) colorimetric assay (see Sigma Aldrich protocol and Riss T. L. et al. Cell Viability Assays in Assay Guidance Manual 2013 ppl.). All experiments were done in duplicate and repeated two independent times.

Panc-1 = assay: Cell viability assay, pancreatic cancer cell lines; assay type: cell-based; conditions: Homo sapiens; Panc-1 (Pancreas); 48 h
Protocol: as §1, §2

MIA PaCa-2 = assay: Cell viability assay, pancreatic cancer cell lines; assay type: cell-based; conditions: Homo sapiens; MIA PaCa-2 (Pancreas); 48 h
Protocol: as §1, §2

BxPC-3 = assay: Cell viability assay, pancreatic cancer cell lines; assay type: cell-based; conditions: Homo sapiens; BxPC-3 (Pancreas); 48 h
Protocol: as §1, §2

Capan-1 = assay: Cell viability assay, pancreatic cancer cell lines; assay type: cell-based; conditions: Homo sapiens; Capan-1 (Pancreas); 48 h
Protocol: as §1, §2

Row | SMILES | EC50 (Colo205) [µM] | EC50 (U87-MG) [µM] | EC50 (B16F10) [µM] | EC50 (Capan-2) [µM] | EC50 (Panc-1) [µM] | EC50 (MIA PaCa-2) [µM] | EC50 (BxPC-3) [µM] | EC50 (Capan-1) [µM]
1 | Cc1ccc(-c2cc(N3CCC(NC(C)(C)C)CC3)c3ccccc3n2)cc1.Cl.Cl [XIII-8, 2-(4-methyl-phenyl)-4-(4-N-tert-butylamino-piperidin-1-yl)quinoline dihydrochloride] | 8 |  |  |  |  |  |  | 
2 | CCN(CC)C1CCN(C(C)c2cc(-c3ccccc3)nc3ccccc23)CC1.Cl.Cl (stereo not drawn) [XIX-3, 2-phenyl-4-{1-[4-(N,N-diethylamino)piperidin-1-yl]-eth-1-yl}quinoline dihydrochloride] |  | 26 | 10 | 32 | 34 | 34 | 33 | 27
3 | CCN(CC)C1CCN(C(C)c2cc(-c3ccc4ccccc4c3)nc3ccccc23)CC1.Cl.Cl (stereo not drawn) [XXIV-3, 2-(2-naphtyl)-4-{1-[4-(N,N-diethylamino)-piperidin-1-yl]-eth-1-yl}quinoline dihydrochloride] | 5 |  |  |  |  |  |  | 
